From US11000512B2, “Use of DDX3 inhibitors as antiproliferative agents” (AZIENDA OSPEDALIERA UNIVERSITARIA SENESE, priority 2016, dated 2021)
Values belong to the compound of their own block, whether it stands above or below them.

Assays:
[1] = tested on: Human breast adenocarcinoma cell line (MDA-MB-231); assay: Cytotoxicity test / growth inhibition, MDA-MB-231; format: cell-based; conditions: MDA-MB-231, 48 hours, cell counting
Method: (§1) Cells were purchased from American Type Culture Collection (ATCC, Manassas, Va., USA). The LNCaP (ATCC® CRL-1740™), A549 (ATCC® CCL-185™), MDA-MB-231 (ATCC® CRM-HTB-26™), 22Rv1 (ATCC® CRL-2505™), HCT-116 (ATCC® CCL-247™) and PC3 (ATCC® CRL-1435™) cells were maintained in Roswell Park Memorial Institute 1640 medium (RPMI; Euroclone, ECB9006L) supplemented with 10% fetal bovine serum (Euroclone; ECS0180L), 2 mM L-glutamine, 100 units/mL penicillin and […] streptomycin at 37° C. in an atmosphere of 5% CO2/air. DU145 (ATCC® HTB-81™), and DAOY (ATCC® HTB-186™) cells were maintained in Eagle's minimal essential medium (EMEM; Euro-clone, ECM0445L) supplemented with 10% fetal bovine serum (Euroclone; ECS0180L), 2 mM L-glutamine, 100 units/ml penicillin and […] streptomycin at 37° C. in an atmosphere of 5% CO2/air. SH-SY5Y (ATCC® CRL-2266™), DBRTG (ATCC® CRL-2020™), HeLa (ATCC® CCL-2™), HN6 cells (kindly provided by Dr Silvio Gutkind, UCSD Medical Center, Moores Cancer Center USA, Chen J. J et al, Oncotarget 2013, 4, 206-217)), U2OS (ATCC® HTB-96™), RD18 cells (kindly provided by Dr P. Boccuni Memorial Sloan-Kettering Cancer Center, New York, USA Vella S. et al. Clin Epigenetics. 2015 6; 7-82), cells were maintained in Dulbecco's modified Eagle's medium (DMEM; Euroclone, ECB7501L) supplemented with 10% fetal bovine serum (Euroclone; ECS0180L), 2 mM L-glutamine, 100 units/ml penicillin and 100 mg/mL streptomycin at 37° C. in an atmosphere of 5% CO2/air.
(§2) Cell lines were seeded at appropriate densities in 2 mL growth medium in 6-wells culture plates 24 hours before the treatment with the inhibitor compounds. After 24 h the culture medium was removed and fresh medium containing increasing concentrations of chemical compounds was added to cells. The fixed final concentrations were: 0.1 μM, 1 μM, 10 μM, 100 μM. DMSO was the vehicle used for dilution of the compounds and its final concentration on cells was less than 0.2%. Medium-only containing wells were included as controls. Cells were incubated 48 hours with drugs and, then, cell viability was evaluated.
(§3) Cells were detached from each well of the 6-wells plates with 300 μL of Trypsin and suspended in culture medium to a final volume of 1 mL. Cell viability was then assessed through cell counting. Cells were diluted in 1:50 ratio of an isotonic buffered diluent, Isoton (Backman Coulter), following the manufacturer's instructions, and counted using an automated cell counter (Z2 series Coulter Counter, Beckman Coulter). Each cell count was performed in three replicates. The values corresponding to the relative survival of cells in presence of each chemical compound at single concentrations were normalized to the untreated controls. Then, the half maximal inhibitory concentration (IC50) value, which represent the drug concentration that is required to induce a 50% growth inhibition in vitro, was calculated with GraphPad Prism 6.0 software using the best fitting sigmoid curve.

[2] = tested on: Human colorectal carcinoma cell line (HCT116); assay: Cytotoxicity test / growth inhibition, HCT116; format: cell-based; conditions: HCT-116, HCT116, 48 hours, cell counting
Method: as §1, with “2015 6; 7-82), cells were maintained in Dulbecco's modified Eagle's medium (DMEM; Euroclone, ECB7501L) supplemented with 10% fetal bovine serum (Euroclone; ECS0180L), 2 mM L-glutamine, 100 units/ml penicillin and 100 mg/mL streptomycin at 37° C. in an atmosphere of 5% CO2/air.” left out
Cell lines were seeded at appropriate densities in 2 mL growth medium in 6-wells culture plates 24 hours before the treatment with the inhibitor compounds. […] Cells were incubated 48 hours with drugs and, then, cell viability was evaluated.
Cells were detached from each well of the 6-wells plates with 300 μL of Trypsin and suspended in culture medium to a final volume of 1 mL. Cell viability was then assessed through cell counting. Cells were diluted in 1:50 ratio of an isotonic buffered diluent, Isoton (Backman Coulter), following the manufacturer's instructions, and counted using an automated cell counter (Z2 series Coulter Counter, Beckman Coulter). […]

[3] = tested on: Human head and neck squamous carcinoma cell line (HN6); assay: Cytotoxicity test / growth inhibition, HN6; format: cell-based; conditions: HN6, 48 hours, cell counting
Method: as §1, §2, §3

[4] = tested on: Human adenocarcinomic alveolar basal epithelial cell line (A549); assay: Cytotoxicity test / growth inhibition, A549; format: cell-based; conditions: A549, 48 hours, cell counting
Method: as §1, §2, §3

MOLT-4 T-lymphocytic = conditions: cited from earlier work
HIV-1 (IIIB) = HIV-1 (IIIB) in MT4-cells; cited from earlier work
ATPase activity of DDX3 = ATPase activity of DDX3 (Homo sapiens, UniProt O00571); conditions: Maga et al. 2008; cited from earlier work
Water Solubility Assay = format: physicochemical
Method: Water Solubility Assay. Each solid compound (1 mg) was added to 1 mL of water. The samples were shaked in a shaker bath at room temperature for 24-36 h. The suspensions were filtered through a 0.45 μm nylon filter (Acrodisc), and the solubilized compound determined by LC-MS-MS assay. For each compound the determination was performed in triplicate.
(§4) For the quantification was used an LC-MS system consisted of a Varian apparatus (Varian Inc) including a vacuum solvent degassing unit, two pumps (212-LC), a Triple Quadrupole MSD (Mod. 320-LC) mass spectrometer with ES interface and Varian MS Workstation System Control Vers. 6.9 software. Chromatographic separation was obtained using a Pursuit C18 column (50×2.0 mm) (Varian) with 3 μm particle size and gradient elution: eluent A being ACN and eluent B consisting of water. […] The flow rate was 0.2 mL min^−1 and injection volume was 5 μL. The instrument operated in positive mode and parameters were: detector 1850 V, drying gas pressure 25.0 psi, desolvation temperature 300.0° C., nebulizing gas 40.0 psi, needle 5000 V and shield 600 V. Nitrogen was used as nebulizer gas and drying gas. Collision induced dissociation was performed using Argon as the collision gas at a pressure of 1.8 mTorr in the collision cell. Microsomal Stability Assay. […] The reaction was stopped by cooling on ice and adding 1.0 mL of acetonitrile. The reaction mixtures were then centrifuged, and the parent drug and metabolites were subsequently determined by LC-UV-MS. Chromatographic analysis was performed with an Agilent 1100 LC/MSD VL system (G1946C) (Agilent Technologies, Palo Alto, Calif.) constituted by a vacuum solvent degassing unit, a binary high-pressure gradient pump, an 1100 series UV detector, and an 1100 MSD model VL benchtop mass spectrometer.

[5] = Microsomal Stability Assay (HLM); format: in vitro ADME; conditions: human liver microsomes, 37° C., 60 min, NADPH-generating system; percentage of not metabolized compound
Excerpt: as §4
Chromatographic separation was obtained using a Varian Polaris C18-A column (150-4.6 mm, 5 μm particle size) and gradient elution: eluent A being ACN and eluent B consisting of water. […] The flow rate was 0.8 mL min^−1 and injection volume was 20 μL.
The Agilent 1100 series mass spectra detection (MSD) single-quadrupole instrument was equipped with the orthogonal spray API-ES (Agilent Technologies, Palo Alto, Calif.). Nitrogen was used as nebulizing and drying gas. The pressure of the nebulizing gas, the flow of the drying gas, the capillary voltage, the fragmentor voltage, and the vaporization temperature were set at 40 psi, 9 L/min, 3000 V, 70 V, and 350° C., respectively. UV detection was monitored at 280 nm. The LC-ESI-MS determination was performed by operating the MSD in the positive ion mode. Spectra were acquired over the scan range m/z 100-1500 using a step size of 0.1 u. The percentage of not metabolized compound was calculated by comparison with reference solutions.

[6] = Parallel Artificial Membrane Permeability Assay (PAMPA), GI; format: in vitro ADME; conditions: GI (intestinal) PAMPA, value in brackets
Method: Parallel Artificial Membrane Permeability Assay (PAMPA). Donor solution (0.5 mM) was prepared by diluting 1 mM dimethylsulfoxide (DMSO) compound stock solution using phosphate buffer (pH 7.4, 0.025 M). Filters were coated with 5 μL of a 1% (w/v) dodecane solution of phosphatidylcholine prepared from CHCl3 solution 10% w/v, for intestinal permeability. Donor solution (150 μL) was added to each well of the filter plate. To each well of the acceptor plate were added 300 μL of solution (50% DMSO in phosphate buffer). All compounds were tested in three different plates on different days. The sandwich was incubated for 5 h at room temperature under gentle shaking. After the incubation time, the plates were separated, and samples were taken from both receiver and donor sides and analyzed using LC with UV detection at 280 nm.
LC analysis were performed with a Varian Prostar HPLC system (Varian Analytical Instruments, USA) equipped with a binary pump with a manual injection valve and model Prostar 325 UV-VIS Detector. Chromatographic separations were conducted using a Polaris C18-A column (150-4.6 mm, 5 μm particle size) at a flow rate of 0.8 mL min^−1 with a mobile phase composed of 60% ACN/40% H2O.
Permeability (Papp) for PAMPA was calculated according to the following equation, obtained from Wohnsland and Faller and Sugano et al. equation with some modification in order to obtain permeability values in cm s^−1,
where VA is the volume in the acceptor well, VD is the volume in the donor well (cm^3), A is the “effective area” of the membrane (cm^2), t is the incubation time (s) and r the ratio between drug concentration in the acceptor and equilibrium concentration of the drug in the total volume (VD+VA). Drug concentration is estimated by using the peak area integration.
Membrane retentions (%) were calculated according to the following equation: […]
where r is the ratio between drug concentration in the acceptor and equilibrium concentration, D, A, and Eq represented drug concentration in the donor, acceptor and equilibrium solution, respectively.

HIV = conditions: viral load of PBMCs infected with HIV; cited from earlier work

Chain of ATPase activity of DDX3 (O00571 whole entry): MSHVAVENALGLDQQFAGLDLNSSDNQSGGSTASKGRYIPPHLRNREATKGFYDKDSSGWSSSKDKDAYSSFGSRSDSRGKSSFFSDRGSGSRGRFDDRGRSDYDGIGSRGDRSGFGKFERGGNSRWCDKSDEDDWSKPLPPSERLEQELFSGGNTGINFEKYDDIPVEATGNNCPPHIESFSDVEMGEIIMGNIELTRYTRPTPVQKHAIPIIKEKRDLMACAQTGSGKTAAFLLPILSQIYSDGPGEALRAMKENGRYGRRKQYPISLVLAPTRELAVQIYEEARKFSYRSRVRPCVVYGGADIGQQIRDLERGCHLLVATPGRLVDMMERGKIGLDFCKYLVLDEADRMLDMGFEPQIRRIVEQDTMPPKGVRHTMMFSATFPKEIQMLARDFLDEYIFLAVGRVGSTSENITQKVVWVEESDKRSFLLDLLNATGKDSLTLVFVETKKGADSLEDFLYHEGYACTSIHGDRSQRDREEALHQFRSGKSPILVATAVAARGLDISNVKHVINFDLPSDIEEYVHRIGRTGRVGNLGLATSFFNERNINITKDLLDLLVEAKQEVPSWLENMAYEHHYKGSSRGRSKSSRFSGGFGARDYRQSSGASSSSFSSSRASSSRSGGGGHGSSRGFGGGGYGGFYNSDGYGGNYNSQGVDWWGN

Compound: CCCCc1nnc(-c2ccc(NC(=O)Nc3ccccc3C(F)(F)F)cc2)o1 [Compound 112, 1-(4-(5-butyl-1,3,4-oxadiazol-2-yl)phenyl)-3-(2-(trifluoromethyl)phenyl)urea]
IC50 [1]: 33.6 µM | IC50 [2]: 38.2 µM | IC50 [3]: 75.7 µM | IC50 [4]: 57.1 µM

Compound: O=C(CN1C(=O)/C(=C/c2cccc(Br)c2)SC1=S)Nc1ccccc1O [FE15]
CC50 (MOLT-4 T-lymphocytic): > 200 µM | EC50 (HIV-1 (IIIB)): 86.7 µM | Ki (ATPase activity of DDX3): 5.4 µM

LogS (Water Solubility Assay; from aqueous solubility): <−8.5 | Aq. Solub. (Water Solubility Assay; water, room temperature, 24-36 h): <0.001 µg/mL | Sability % [5]: 95.6% | PAMPA GI (RM %) membrane retention [6]: 24.8%
Compound: CCCCn1nnc(-c2ccc(NC(=O)Nc3ccccc3C)cc2)n1 [Compound 49, 1-(4-(2-butyl-2H-tetrazol-5-yl)phenyl)-3-(o-tolyl)urea]

Compound: Cc1ccccc1NC(=O)Nc1cccc([N+](=O)[O-])c1 [EI01D]
EC50 (HIV): 10 µM
